The text below walks through data of ChEMBL document CHEMBL2311459, “Naphthyridinone (NTD) integrase inhibitors: N1 protio and methyl combination substituent effects with C3 amide groups” (Bioorg Med Chem Lett, 2013).

In general, IC50 refers to the concentration that gives 50% inhibition. For orientation: AUC means the area under the concentration-time curve, a measure of exposure. Low values mean low exposure, high ones high exposure.

Data set [1] can be described thus: Therapeutic index, ratio of cytotoxicity against human MT4 cells to antiviral activity against HIV. It counts as cell-based. The conditions noted are these: read-out: TI.
The test system of data set [2] is Human immunodeficiency virus. The experiment in a line: Antiviral activity against HIV in presence of 40 mg/mL of purified human serum albumin. The conditions noted are these: Human immunodeficiency virus 1. The format is functional, organism-based.
A short description of data set [3]: AUC in CD rat at 5 mg/kg, po. It counts as ADME, organism-based. Further details: dose 5 mg/kg, route oral. The conditions noted are these: plasma.
Data set [4] in a line: Ratio of plasma concentration in CD rat at 1 mg/kg, iv and 5 mg/kg, po after 24 hrs to IC50 for HIV in presence of 40 mg/mL of purified human serum albumin. The format is ADME, organism-based. The conditions noted are these: in vivo.
Data set [5] has as its system Human immunodeficiency virus. The experiment in a line: Antiviral activity against HIV. The conditions noted are these: Human immunodeficiency virus 1. The format is functional, organism-based.
The nature of data set [6]: Plasma clearance in CD rat at 1 mg/kg, iv and 5 mg/kg, po. It counts as ADME, organism-based.
The target in data set [7] is Human immunodeficiency virus type 1 integrase (Human immunodeficiency virus 1, UniProt Q7ZJM1). The experiment in a line: Inhibition of HIV1 integrase strand transfer activity.
The test system of data set [8] is Human immunodeficiency virus. The experiment in a line: Antiviral activity against HIV infected in human MT4 cells. The format is functional, organism-based. The conditions noted are these: Human immunodeficiency virus 1, MT4.

Sequence of Human immunodeficiency virus type 1 integrase (Q7ZJM1 whole entry): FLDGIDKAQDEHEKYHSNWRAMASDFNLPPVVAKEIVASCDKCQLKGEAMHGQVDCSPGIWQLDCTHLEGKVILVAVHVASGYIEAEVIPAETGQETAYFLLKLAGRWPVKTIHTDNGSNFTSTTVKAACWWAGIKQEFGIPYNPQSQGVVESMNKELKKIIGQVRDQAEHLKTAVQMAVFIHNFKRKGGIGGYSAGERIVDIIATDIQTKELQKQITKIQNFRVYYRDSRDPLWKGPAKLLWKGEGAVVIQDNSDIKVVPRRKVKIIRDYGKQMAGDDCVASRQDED

`Cn1c(=O)c(C(=O)NCCO)c(O)c2ncc(Cc3ccc(F)cc3)cc21` [GSK-364735]: the selectivity ratio in data set [1] was above 2000. For the same molecule, the IC50 in data set [2] is 20 nM; in data set [5], 2 nM; in data set [7], 8 nM; in data set [8] it was 5 nM. In addition, the AUC in data set [3] amounted to 22800 ng·h/mL. The Ratio in data set [4] is on record as 0.3. In addition, in data set [6], the clearance turned out to be 3.2 mL/min/kg.
